Entries after “also recorded” stand apart in the source; their conditions may differ.
Legend:
pp-VSV-SARS-CoV-2 = assay: Adhesion of pp-VSV-SARS-CoV-2 on Vero cells, flow cytometry with anti-spike S1; format: cell-based; settings: 20 minutes infection in presence of lipid
[1] = test system: lymphocytic choriomeningitis virus (LCMV); format: cell-based, LCMV strain WE; settings: 24 hours
recombinant ACE2 = biological target: T1, recombinant ACE2 (Homo sapiens, UniProt Q9BYF1); assay: Binding of lipids to immobilized recombinant ACE2; settings: sphingosine at 2 μM
T1 construct: purchased Abcam ab273687

[2] = test system: vesicular stomatitis virus (VSV); format: cell-based, VSV strain Indiana; settings: 24 hours
[3] = test system: lymphocytic choriomeningitis virus (LCMV); format: cell-based, LCMV strain WE

T1 sequence (Q9BYF1 18-805): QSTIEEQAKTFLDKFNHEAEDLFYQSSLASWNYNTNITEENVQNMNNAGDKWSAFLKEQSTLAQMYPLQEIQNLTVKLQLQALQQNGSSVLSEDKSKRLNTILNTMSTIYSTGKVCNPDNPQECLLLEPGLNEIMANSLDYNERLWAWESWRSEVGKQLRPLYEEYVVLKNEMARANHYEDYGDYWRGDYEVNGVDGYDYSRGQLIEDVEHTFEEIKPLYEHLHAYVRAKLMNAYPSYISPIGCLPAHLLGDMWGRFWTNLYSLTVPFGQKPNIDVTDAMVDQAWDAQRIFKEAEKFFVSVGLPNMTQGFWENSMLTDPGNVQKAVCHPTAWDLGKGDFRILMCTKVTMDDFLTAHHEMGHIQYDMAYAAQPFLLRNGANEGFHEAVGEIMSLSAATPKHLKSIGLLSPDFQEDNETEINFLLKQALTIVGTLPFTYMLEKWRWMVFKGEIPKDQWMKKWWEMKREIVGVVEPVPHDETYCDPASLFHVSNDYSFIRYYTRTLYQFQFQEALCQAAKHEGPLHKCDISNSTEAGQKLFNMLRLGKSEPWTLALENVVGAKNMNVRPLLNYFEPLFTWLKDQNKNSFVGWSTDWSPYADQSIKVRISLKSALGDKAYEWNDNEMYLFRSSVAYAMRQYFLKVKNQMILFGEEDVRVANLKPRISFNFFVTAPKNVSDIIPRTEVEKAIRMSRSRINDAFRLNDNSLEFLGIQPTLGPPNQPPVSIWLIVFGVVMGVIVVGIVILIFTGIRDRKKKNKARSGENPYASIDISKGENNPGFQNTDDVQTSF

Row | Molecule | binding of pp-VSV-SARS-CoV-2 to the cell surface (pp-VSV-SARS-CoV-2) | binding of lipid to immobilized recombinant ACE2 (beads) (recombinant ACE2) | other results
1 | CCCCCCCCCCCCC/C=C/[C@@H](O)[C@H](CO)NC(=O)CCCCCCCCCCCCCCC [C16-ceramide] | None of the other lipids had an effect | – | –
2 | Oc1ccc(Nc2nc(-c3ccc(Cl)cc3)cs2)cc1 [SKII, [2-(p-hydroxyanilino)-4-(p-chlorophenyl)thiazole]] | – | – | spreading of the virus (LCMV-infected cells) [1]: inhibits spreading of the virus; also recorded: inhibits the spreading of the virus
3 | CCCCCCCCCCCCC/C=C/[C@@H](O)[C@@H](N)COP(=O)(O)O [sphingosine 1-phosphate] | None of the other lipids had an effect | showed no interation with the beads | –
4 | cardiolipin | None of the other lipids had an effect | showed no interation with the beads | –
5 | ceramide | – | showed no interation with the beads | –
6 | lactosyl-ceramide | None of the other lipids had an effect | – | –
7 | phosphatidyl-ethanolamine | – | showed no interation with the beads | –
8 | phosphatidylcholine | None of the other lipids had an effect | showed no interation with the beads | –
9 | sphingomyelin | None of the other lipids had an effect | showed no interation with the beads | –
10 | sphingomyelinase | – | – | propagation of VSV (number of plaques) [2]: inhibits the propagation of VSV; propagation of LCMV (infectious LCMV particles in the supernatant) [3]: reduced propagation of LCMV; also recorded: inhibits the propagation of LCMV

Reference: patent publication US11298412B2, “Sphingoid compounds for prophylaxis and/or therapy of coronaviridae infection” (priority 2020, dated 2022)
